Results reported in US20240300958A1, “COMPOUNDS AND THE USES AND PHARMACEUTICAL COMPOSITIONS THEREOF” (BEIJING YOUZHUJU NETWORK TECHNOLOGY CO. LTD., priority 2023, published 2024).
Read-outs that look alike come from different tables or passages of the source.

Columns and labels:
Assay in all cases: Kinase inhibition profile (HTRF / ADP Glo kinase assay)
Type in all cases: biochemical
BRSK2 = BRSK2 (Homo sapiens (Human), UniProt Q8IWQ3)
Protocol: (§1) HTRF kinase assay: 2×ATP and substrate solution as well as 2× kinase and metal solution were prepared with assay buffer. 25 nL of compound was transferred to 384-well assay plate by Echo 655. After centrifugation, 2.5 μL of 2× kinase/metal ion solution was added to the 384-well assay plate followed by incubation at 25° C. for 10 min. 2.5 μL of 2× substrate and ATP solution was added to the wells followed by incubation at 25° C. for 60 min. 2× XL665 and antibody solution was prepared with assay buffer. 5 μL of kinase detection reagent was added to the wells followed by incubation at 25° C. for 60 min. Fluorescence signals at 620 nm (Cryptate) and 665 nm (XL665) were read with a microtiter plate reader. ADP Glo kinase assay: 2×ATP and substrate solution as well as 2× kinase and metal solution were prepared with assay buffer. 20 nL of compound was transferred to 384-well assay plate by Echo 655. 2 μL of 2× kinase/metal ion solution was added followed by incubation at 25° C. for 10 min in the 384-well assay plate. 2 μL of 2× substrate and ATP solution was added to the wells followed by incubation at 25° C. for 60 min. 4 μL of ADP Glo reagent was added to the wells followed by incubation at 25° C. for 40 min. 8 μL of kinase test reagent was added to the wells followed by incubation at 25° C. for 40 min. The luminescence signals were recorded on a microtiter plate reader. Data analysis: the reaction control (0.5% DMSO) reading was set to 0% inhibition, and the background (10 μM positive control) reading was set to 100% inhibition, then the percent inhibition for each test solution was calculated and the results are shown in Table 2 and FIG. 3.

CK1γ3 = CK1γ3 (Homo sapiens (Human), UniProt Q9Y6M4)
Protocol: as §1

DAPK1 = DAPK1 (Homo sapiens (Human), UniProt P53355)
DAPK1, sequence (P53355 whole entry, species assumed): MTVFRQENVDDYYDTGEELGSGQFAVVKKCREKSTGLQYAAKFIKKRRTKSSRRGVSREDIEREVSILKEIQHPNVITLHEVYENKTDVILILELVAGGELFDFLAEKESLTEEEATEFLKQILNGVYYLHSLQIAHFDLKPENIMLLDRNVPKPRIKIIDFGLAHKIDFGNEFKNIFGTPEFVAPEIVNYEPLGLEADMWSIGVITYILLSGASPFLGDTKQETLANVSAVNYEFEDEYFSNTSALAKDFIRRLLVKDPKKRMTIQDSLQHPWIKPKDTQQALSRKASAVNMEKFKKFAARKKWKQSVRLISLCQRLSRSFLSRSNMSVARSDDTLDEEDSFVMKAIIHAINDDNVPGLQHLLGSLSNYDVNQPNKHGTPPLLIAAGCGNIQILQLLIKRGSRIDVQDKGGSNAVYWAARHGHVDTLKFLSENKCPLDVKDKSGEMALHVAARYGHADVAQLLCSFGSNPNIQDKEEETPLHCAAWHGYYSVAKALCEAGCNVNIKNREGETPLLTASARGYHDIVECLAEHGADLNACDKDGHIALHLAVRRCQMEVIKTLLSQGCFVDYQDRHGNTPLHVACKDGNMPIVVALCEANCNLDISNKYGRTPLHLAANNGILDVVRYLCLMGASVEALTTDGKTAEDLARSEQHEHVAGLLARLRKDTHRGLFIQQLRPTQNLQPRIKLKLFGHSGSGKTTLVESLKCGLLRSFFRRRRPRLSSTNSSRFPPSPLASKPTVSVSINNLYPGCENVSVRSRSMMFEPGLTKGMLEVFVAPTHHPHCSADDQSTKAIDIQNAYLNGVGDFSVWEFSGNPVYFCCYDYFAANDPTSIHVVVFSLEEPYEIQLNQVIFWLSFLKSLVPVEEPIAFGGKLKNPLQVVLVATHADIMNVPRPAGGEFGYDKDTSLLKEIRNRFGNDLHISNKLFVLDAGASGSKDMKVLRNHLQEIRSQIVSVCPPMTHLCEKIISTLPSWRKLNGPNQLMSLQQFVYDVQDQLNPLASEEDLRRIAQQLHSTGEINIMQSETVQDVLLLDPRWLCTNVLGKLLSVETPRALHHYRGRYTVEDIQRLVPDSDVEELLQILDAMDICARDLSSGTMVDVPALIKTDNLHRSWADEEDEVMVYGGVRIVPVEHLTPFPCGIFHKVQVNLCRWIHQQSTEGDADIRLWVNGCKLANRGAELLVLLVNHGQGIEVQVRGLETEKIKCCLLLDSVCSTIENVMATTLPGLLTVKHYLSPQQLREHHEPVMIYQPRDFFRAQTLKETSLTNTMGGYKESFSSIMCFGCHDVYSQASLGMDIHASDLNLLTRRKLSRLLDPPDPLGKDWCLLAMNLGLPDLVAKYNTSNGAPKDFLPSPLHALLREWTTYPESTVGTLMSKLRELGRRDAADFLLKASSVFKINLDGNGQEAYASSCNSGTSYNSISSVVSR
Protocol: as §1

DCAMKL2 = DCAMKL2 (Homo sapiens (Human), UniProt Q8N568)
DCAMKL2, sequence (Q8N568 whole entry, species assumed): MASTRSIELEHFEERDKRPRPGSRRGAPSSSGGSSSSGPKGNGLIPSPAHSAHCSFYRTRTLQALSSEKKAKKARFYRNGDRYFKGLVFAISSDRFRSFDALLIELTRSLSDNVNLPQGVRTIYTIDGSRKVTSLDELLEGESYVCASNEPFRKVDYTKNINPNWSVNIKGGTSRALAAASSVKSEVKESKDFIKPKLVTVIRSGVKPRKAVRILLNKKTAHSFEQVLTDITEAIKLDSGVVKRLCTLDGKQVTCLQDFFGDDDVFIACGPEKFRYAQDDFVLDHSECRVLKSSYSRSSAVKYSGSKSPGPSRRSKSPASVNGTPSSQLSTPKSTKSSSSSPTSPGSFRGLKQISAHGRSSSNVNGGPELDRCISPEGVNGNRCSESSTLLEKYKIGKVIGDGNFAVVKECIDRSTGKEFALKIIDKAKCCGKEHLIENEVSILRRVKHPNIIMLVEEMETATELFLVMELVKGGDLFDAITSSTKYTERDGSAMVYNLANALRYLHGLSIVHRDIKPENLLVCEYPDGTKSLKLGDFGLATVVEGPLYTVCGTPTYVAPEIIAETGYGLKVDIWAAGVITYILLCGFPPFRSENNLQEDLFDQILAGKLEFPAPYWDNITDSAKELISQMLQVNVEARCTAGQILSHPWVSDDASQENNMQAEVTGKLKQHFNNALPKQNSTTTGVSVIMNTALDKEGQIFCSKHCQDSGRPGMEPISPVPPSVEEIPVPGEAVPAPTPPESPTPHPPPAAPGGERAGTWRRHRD
Protocol: as §1

EPHB4 = EPHB4 (Homo sapiens (Human), UniProt P54760)
Protocol: as §1

Erk2 = Erk2 (Homo sapiens (Human), UniProt P28482)
Protocol: as §1

GSK3β = GSK3β (Homo sapiens (Human), UniProt P49841)
Protocol: as §1

HIPK1 = HIPK1 (Homo sapiens (Human), UniProt Q86Z02)
Protocol: as §1

IGF1R = IGF1R (Homo sapiens (Human), UniProt P08069)
IGF1R, sequence (P08069 31-1367, species assumed): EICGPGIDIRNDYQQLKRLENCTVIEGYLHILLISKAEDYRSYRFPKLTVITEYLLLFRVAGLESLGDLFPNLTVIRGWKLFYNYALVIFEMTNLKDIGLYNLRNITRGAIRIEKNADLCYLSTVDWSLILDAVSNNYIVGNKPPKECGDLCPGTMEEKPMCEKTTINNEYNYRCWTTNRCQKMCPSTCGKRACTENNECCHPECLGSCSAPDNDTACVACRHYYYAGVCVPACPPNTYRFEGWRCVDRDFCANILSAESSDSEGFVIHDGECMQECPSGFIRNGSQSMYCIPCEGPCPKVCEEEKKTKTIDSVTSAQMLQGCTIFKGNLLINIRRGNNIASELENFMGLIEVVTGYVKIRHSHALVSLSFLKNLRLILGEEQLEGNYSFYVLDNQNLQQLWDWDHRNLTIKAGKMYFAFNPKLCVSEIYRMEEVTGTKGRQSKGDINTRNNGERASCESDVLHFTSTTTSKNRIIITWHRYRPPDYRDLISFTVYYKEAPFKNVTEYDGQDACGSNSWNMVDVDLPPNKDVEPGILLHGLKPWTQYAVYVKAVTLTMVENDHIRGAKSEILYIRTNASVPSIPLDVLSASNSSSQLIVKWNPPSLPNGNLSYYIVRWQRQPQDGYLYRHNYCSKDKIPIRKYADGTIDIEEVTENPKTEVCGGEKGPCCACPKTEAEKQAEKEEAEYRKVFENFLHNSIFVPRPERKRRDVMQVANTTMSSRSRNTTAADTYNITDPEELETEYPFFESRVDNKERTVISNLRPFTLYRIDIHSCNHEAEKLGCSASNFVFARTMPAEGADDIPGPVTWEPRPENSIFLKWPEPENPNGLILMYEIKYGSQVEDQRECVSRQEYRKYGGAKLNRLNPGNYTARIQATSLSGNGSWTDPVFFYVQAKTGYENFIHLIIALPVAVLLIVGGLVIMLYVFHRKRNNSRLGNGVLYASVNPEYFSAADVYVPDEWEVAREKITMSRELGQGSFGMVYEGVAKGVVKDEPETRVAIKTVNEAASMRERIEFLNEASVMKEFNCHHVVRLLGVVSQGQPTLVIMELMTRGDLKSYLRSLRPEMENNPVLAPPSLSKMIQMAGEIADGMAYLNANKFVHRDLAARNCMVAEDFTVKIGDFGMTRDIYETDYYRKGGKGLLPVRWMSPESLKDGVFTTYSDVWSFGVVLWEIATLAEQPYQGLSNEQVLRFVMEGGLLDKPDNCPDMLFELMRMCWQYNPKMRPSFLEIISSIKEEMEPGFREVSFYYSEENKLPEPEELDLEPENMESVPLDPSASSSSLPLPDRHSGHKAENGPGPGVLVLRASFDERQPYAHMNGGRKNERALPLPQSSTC
Protocol: as §1

IKKα = IKKα (Homo sapiens (Human), UniProt O15111)
Protocol: as §1

ITK = ITK (Homo sapiens (Human), UniProt Q08881)
Protocol: as §1

JNK1 = JNK1 (Homo sapiens (Human), UniProt P45983)
Protocol: as §1

LCK = LCK (Homo sapiens (Human), UniProt P06239)
LCK, sequence (P06239 whole entry, species assumed): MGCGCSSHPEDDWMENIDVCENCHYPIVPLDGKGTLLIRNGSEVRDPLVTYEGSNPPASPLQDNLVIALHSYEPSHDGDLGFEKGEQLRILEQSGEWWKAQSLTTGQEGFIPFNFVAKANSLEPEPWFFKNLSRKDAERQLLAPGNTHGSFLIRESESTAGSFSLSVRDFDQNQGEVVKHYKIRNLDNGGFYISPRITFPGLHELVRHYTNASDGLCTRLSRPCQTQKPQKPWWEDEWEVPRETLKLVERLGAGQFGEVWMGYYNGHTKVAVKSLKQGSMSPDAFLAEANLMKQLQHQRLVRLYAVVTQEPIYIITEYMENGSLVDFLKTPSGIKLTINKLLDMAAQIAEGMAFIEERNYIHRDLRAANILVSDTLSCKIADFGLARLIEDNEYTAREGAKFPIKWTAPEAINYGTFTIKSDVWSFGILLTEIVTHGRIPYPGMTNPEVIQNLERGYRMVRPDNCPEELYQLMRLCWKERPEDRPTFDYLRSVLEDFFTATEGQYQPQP
Protocol: as §1

MET = MET (Homo sapiens (Human), UniProt P08581)
Protocol: as §1

NEK1 = NEK1 (Homo sapiens (Human), UniProt Q96PY6)
Protocol: as §1

PDGFRα = PDGFRα (Homo sapiens (Human), UniProt P16234)
Protocol: as §1

PLK1 = PLK1 (Homo sapiens (Human), UniProt P53350)
Protocol: as §1

PLK2 = PLK2 (Homo sapiens (Human), UniProt Q9NYY3)
Protocol: as §1

RSK1 = RSK1 (Homo sapiens (Human), UniProt Q15418)
Protocol: as §1

SRC = SRC (Homo sapiens (Human), UniProt P12931)
SRC, sequence (P12931 whole entry, looked up, species assumed): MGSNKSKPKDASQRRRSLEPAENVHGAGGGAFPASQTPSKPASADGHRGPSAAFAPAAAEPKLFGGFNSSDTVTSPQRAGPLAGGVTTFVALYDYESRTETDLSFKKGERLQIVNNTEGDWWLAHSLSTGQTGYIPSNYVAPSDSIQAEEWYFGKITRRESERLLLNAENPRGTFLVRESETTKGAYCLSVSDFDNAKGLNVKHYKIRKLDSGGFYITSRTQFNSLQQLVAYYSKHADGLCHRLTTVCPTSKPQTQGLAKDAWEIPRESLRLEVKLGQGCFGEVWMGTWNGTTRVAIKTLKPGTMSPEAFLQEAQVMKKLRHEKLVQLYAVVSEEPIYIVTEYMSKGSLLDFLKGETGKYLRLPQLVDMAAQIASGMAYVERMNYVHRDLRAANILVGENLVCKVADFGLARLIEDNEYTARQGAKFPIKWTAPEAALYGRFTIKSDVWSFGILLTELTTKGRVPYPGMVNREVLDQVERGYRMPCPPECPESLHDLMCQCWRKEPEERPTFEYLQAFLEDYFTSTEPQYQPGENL
Protocol: as §1

TSSK1 = TSSK1 (Homo sapiens (Human), UniProt Q9BXA7)
Protocol: as §1

p70S6K = p70S6K (Homo sapiens (Human), UniProt P23443)
p70S6K, sequence (P23443 whole entry): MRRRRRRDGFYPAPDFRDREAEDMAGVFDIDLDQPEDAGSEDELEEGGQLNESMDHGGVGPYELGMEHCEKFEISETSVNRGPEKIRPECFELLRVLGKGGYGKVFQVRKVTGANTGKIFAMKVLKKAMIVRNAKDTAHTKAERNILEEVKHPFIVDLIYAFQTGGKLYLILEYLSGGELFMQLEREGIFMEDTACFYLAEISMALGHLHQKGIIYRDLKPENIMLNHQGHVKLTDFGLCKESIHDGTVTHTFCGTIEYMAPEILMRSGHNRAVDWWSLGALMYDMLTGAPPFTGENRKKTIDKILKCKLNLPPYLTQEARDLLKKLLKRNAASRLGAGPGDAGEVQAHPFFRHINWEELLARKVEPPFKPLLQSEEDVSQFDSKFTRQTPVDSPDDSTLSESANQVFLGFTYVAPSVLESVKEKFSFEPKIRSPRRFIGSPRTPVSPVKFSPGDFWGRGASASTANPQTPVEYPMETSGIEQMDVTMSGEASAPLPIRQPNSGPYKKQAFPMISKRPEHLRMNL
Protocol: as §1

[1] = 1 uM Compound C1, read-out: % Inhibition (First measurement)
[2] = 1 uM Compound C1, read-out: % Inhibition (Second measurement)
[3] = 1 uM Compound C1, read-out: Average inhibition (%)

inhibition at 1 µM (BRSK2; [1]): 0.46%
inhibition at 1 µM (BRSK2; [2]): -0.94%
inhibition at 1 µM (BRSK2; [3]): -0.24%
inhibition at 1 µM (CK1γ3; [1]): -7.05%
inhibition at 1 µM (CK1γ3; [2]): 1.91%
inhibition at 1 µM (CK1γ3; [3]): -2.57%
inhibition at 1 µM (DAPK1; [1]): -14.5%
inhibition at 1 µM (DAPK1; [2]): -5.25%
inhibition at 1 µM (DAPK1; [3]): -9.87%
inhibition at 1 µM (DCAMKL2; [1]): -8.91%
inhibition at 1 µM (DCAMKL2; [2]): -8.39%
inhibition at 1 µM (DCAMKL2; [3]): -8.65%
inhibition at 1 µM (EPHB4; [1]): 3.8%
inhibition at 1 µM (EPHB4; [2]): -8.27%
inhibition at 1 µM (EPHB4; [3]): -2.24%
inhibition at 1 µM (Erk2; [1]): 20.2%
inhibition at 1 µM (Erk2; [2]): 19.3%
inhibition at 1 µM (Erk2; [3]): 19.8%
inhibition at 1 µM (GSK3β; [1]): 0.83%
inhibition at 1 µM (GSK3β; [2]): 7.83%
inhibition at 1 µM (GSK3β; [3]): 4.33%
inhibition at 1 µM (HIPK1; [1]): 6.91%
inhibition at 1 µM (HIPK1; [2]): 4.17%
inhibition at 1 µM (HIPK1; [3]): 5.54%
inhibition at 1 µM (IGF1R; [1]): -0.05%
inhibition at 1 µM (IGF1R; [2]): -2.29%
inhibition at 1 µM (IGF1R; [3]): -1.17%
inhibition at 1 µM (IKKα; [1]): -18%
inhibition at 1 µM (IKKα; [2]): -12.9%
inhibition at 1 µM (IKKα; [3]): -15.5%
inhibition at 1 µM (ITK; [1]): -3.82%
inhibition at 1 µM (ITK; [2]): -19.2%
inhibition at 1 µM (ITK; [3]): -11.5%
inhibition at 1 µM (JNK1; [1]): 4.56%
inhibition at 1 µM (JNK1; [2]): 5.69%
inhibition at 1 µM (JNK1; [3]): 5.13%
inhibition at 1 µM (LCK; [1]): 7.39%
inhibition at 1 µM (LCK; [2]): -6.87%
inhibition at 1 µM (LCK; [3]): 0.26%
inhibition at 1 µM (MET; [1]): -11.9%
inhibition at 1 µM (MET; [2]): -15.8%
inhibition at 1 µM (MET; [3]): -13.9%
inhibition at 1 µM (NEK1; [1]): 14.6%
inhibition at 1 µM (NEK1; [2]): 8.97%
inhibition at 1 µM (NEK1; [3]): 11.8%
inhibition at 1 µM (PDGFRα; [1]): 84.1%
inhibition at 1 µM (PDGFRα; [2]): 84.8%
inhibition at 1 µM (PDGFRα; [3]): 84.4%
inhibition at 1 µM (PLK1; [1]): 24.1%
inhibition at 1 µM (PLK1; [2]): 20.6%
inhibition at 1 µM (PLK1; [3]): 22.4%
inhibition at 1 µM (PLK2; [1]): 10.6%
inhibition at 1 µM (PLK2; [2]): 2.02%
inhibition at 1 µM (PLK2; [3]): 6.33%
inhibition at 1 µM (RSK1; [1]): 0.73%
inhibition at 1 µM (RSK1; [2]): -7.9%
inhibition at 1 µM (RSK1; [3]): -3.59%
inhibition at 1 µM (SRC; [1]): -0.76%
inhibition at 1 µM (SRC; [2]): -1.13%
inhibition at 1 µM (SRC; [3]): -0.94%
inhibition at 1 µM (TSSK1; [1]): -15.1%
inhibition at 1 µM (TSSK1; [2]): -3.43%
inhibition at 1 µM (TSSK1; [3]): -9.28%
inhibition at 1 µM (p70S6K; [1]): 0.46%
inhibition at 1 µM (p70S6K; [2]): -0.19%
inhibition at 1 µM (p70S6K; [3]): 0.14%
Structure (SMILES): Cc1ccc(C(=O)Nc2ccccn2)cc1C#Cc1cnc2cc(C3=CCCCC3)cnn12 [Compound C1, 3-{2-[7-(cyclohex-1-en-1-yl)imidazo[1,2-b]pyridazin-3-yl]ethynyl}-4-methyl-N-(pyridin-2-yl)benzamide]
